The target in one experiment is Cathepsin L (Homo sapiens, UniProt P07711). As to the kind of experiment: Cathepsin IC50, Cathepsin L. The experiment is classed as biochemical.
Experiment [1] has as its system T1, UCHL1, USP1, USP2, USP6, USP9x, USP10, USP15, USP16, USP20, USP21, USP22, USP25, USP28, USP35, USP36, USP46/UAF1.
T1 construct: other: each of UCHL1, USP1, USP2, USP6, USP9x, USP10, USP15, USP16, USP20, USP21, USP22, U
As to the kind of experiment: DUB biochemical IC50 assays (off-target panel). To be noted: each of UCHL1, USP1, USP2, USP6, USP9x, USP10, USP15, USP16, USP20, USP21, USP22, USP25, USP28, USP35, USP36, USP46/UAF1; read-out: IC50 (μM) against DUB panel.

In experiment [2] the test system is Eurofins CEREP SafetyScreen44 panel. The experiment is described as follows: Eurofins CEREP SafetyScreen44 panel profiling. The experiment is classed as binding. To be noted: single concentration of 10 μM; for Example 2 all targets except 5-HT2b. An excerpt:
Aside from selectivity over other DUB enzymes, it is important for a drug to have low affinity for other targets, and pharmacological profiling may be performed against panels of targets to assess the potential for, and to minimise, potential off-target effects. Examples of targets for which the compounds of the present invention may be screened against are those of the industry standard Eurofins-Cerep SafetyScreen44 panel, which includes 44 targets as a representative selection of GPCR receptors, transporters, ion channels, nuclear receptors, and kinase and non-kinase enzymes. Preferably, compounds of the invention have insignificant affinity against targets of this screening panel. Further examples of targets for which the compounds of the present invention may be screened against are kinases of the Thermo Fisher SelectScreen kinase profiling panel, which includes 39 targets as a representative selection of kinase enzymes. Preferably, compounds of the invention have insignificant affinity against targets of this screening panel. Additionally, examples of a particular enzyme class for which the compounds of the present invention may be screened against are the cathepsins (e.g. cathepsin A, B, C, H, K, L, L2, S, V and Z). Preferably, compounds of the invention have good selectivity for USP30 over one or more of these enzymes. […]

The test system of experiment [3] is T2, UCHL1, USP1, USP2, USP6, USP9x, USP10, USP15, USP16, USP20, USP21, USP22, USP25, USP28, USP35, USP36, USP46/UAF1.
T2 construct: other: each of UCHL1, USP1, USP9x, USP10, USP15, USP16, USP20, USP21, USP22, USP25, USP28
As to the kind of experiment: DUB biochemical IC50 assays (off-target panel). The settings on record: each of UCHL1, USP1, USP9x, USP10, USP15, USP16, USP20, USP21, USP22, USP25, USP28, USP35, USP36, USP46/UAF1; read-out: IC50 (μM) against DUB panel.

Another experiment addresses T3, USP30 (Homo sapiens, UniProt Q70CQ3).
T3 construct: USP30 endogenous cellular target engagement western blot (WB) assay; endogenous in cells; host or cells: HeLa cells stably overexpressing YFP-Parkin
As to the kind of experiment: USP30 endogenous cellular target engagement western blot assay (Cell TE WB). The experiment is classed as cell-based. To be noted: Hela cells stably overexpressing YFP-Parkin, 1 hour. Here is the method:
Hela cells stably overexpressing YFP-Parkin were seeded into 6 well dishes. Once adhered, cells were treated with appropriate concentrations of test compounds or vehicle control for 1 hour at 37° C., 5% CO2. Whole cell lysates were prepared by scraping the cells into cold PBS, centrifuging and lysing in lysis buffer (50 mM Tris-base, pH 7.5, 50 mM NaCl, 1% NP-40/Igepal CA-630, 2 mM MgCl2, 10% Glycerol, 5 mM beta-mercaptoethanol, cOmplete mini tablets EDTA free (Roche), PhosStop tablets (Roche)) for 10 mins. The equivalent of 20 μg of protein from the cleared cell lysate was incubated with a final conc of 2.5 μM HA-Ahx-Ahx-Ub-VME probe at room temperature. The reaction was stopped by addition of 5×SDS sample loading buffer and proteins separated by SDS PAGE and western blotting. USP30 was detected using an anti-USP30 Sheep S746D antibody (MRC PPU Reagents and Services) and a rabbit anti sheep secondary IgG (H+L) horseradish peroxidase conjugated (Thermo #31480) and visualised using ECL reagent (GE #RPN2109) on a GE LAS4000 imager. Target engagement was measured by quantitation of the bands corresponding to USP30 and USP30 bound to the Ub-VME probe and expression of this proportion compared to vehicle treated control.
MDR1-MDCK (Madin-Darby Canine Kidney cell monolayer) (in vitro) flux assay. Cell TE WB: USP30 endogenous cellular target engagement western blot (WB) assay. […]

In another experiment the target is T4, 5-HT2b (Homo sapiens, UniProt P41595).
T4 construct: purchased Eurofins CEREP (contract screening panel) SafetyScreen44
As to the kind of experiment: Eurofins CEREP SafetyScreen44 panel, 5-HT2b. The format is binding. An excerpt: Example 2 was subject to pharmacological profiling in the Eurofins CEREP SafetyScreen44 panel.

Where two headings read alike, the source gives them in different places.

Usually IC50 stands for the concentration that gives 50% inhibition. A word on the EC50: it is the concentration that produces a half-maximal response. Read a low EC50 as greater potency. The term inhibition denotes the drop in the measured response relative to a control, in per cent.

Sequence of Cathepsin L (P07711 114-333, species assumed): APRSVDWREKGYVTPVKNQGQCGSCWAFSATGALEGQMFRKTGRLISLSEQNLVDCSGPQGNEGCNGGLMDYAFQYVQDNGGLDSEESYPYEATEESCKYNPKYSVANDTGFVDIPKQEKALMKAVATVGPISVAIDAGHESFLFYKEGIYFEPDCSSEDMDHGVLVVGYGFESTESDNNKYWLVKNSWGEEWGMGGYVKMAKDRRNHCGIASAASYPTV
T3 sequence (Q70CQ3 whole entry): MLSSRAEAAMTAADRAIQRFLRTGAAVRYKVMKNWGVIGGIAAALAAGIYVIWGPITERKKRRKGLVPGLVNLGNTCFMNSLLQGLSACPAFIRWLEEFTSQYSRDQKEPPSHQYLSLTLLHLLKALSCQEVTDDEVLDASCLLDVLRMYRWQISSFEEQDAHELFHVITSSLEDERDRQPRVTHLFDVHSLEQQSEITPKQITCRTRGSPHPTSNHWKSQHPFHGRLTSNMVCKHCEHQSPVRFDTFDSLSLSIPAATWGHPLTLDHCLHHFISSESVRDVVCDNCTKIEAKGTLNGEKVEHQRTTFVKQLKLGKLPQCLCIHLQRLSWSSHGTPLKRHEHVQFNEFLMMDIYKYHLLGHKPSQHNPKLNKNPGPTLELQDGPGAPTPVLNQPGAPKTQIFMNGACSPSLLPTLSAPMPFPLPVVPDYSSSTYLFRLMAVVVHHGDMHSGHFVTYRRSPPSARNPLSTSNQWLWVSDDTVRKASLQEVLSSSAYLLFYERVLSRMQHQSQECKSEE
T4 sequence (P41595 whole entry): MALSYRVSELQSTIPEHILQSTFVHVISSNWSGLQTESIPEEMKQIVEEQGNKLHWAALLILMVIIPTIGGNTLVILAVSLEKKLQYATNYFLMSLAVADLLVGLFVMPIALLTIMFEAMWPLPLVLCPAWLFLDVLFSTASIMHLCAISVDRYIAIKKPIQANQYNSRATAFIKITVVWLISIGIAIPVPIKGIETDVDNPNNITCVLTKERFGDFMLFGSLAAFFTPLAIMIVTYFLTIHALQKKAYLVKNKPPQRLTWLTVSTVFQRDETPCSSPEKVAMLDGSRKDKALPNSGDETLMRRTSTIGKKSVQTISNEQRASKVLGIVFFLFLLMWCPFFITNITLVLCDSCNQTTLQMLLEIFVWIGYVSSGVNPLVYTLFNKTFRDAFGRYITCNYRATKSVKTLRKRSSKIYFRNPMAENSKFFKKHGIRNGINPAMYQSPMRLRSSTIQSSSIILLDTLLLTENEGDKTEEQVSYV

With `COC[C@@H]1C[C@@H](NC(=O)c2ncc(-c3cccc(OC(F)(F)F)c3)o2)CN1C#N` [Example 1, N-((3R,5S)-1-Cyano-5-(methoxymethyl)pyrrolidin-3-yl)-5-(3-(trifluoromethoxy)phenyl)oxazole-2-carboxamide], the IC50 was 17.7 µM against Cathepsin L and ≥ 4.4 µM in experiment [1]. Also, in experiment [2], the “inhibition of binding or enzyme activity against all targets in the panel” value is “less than 20%”.

Turning to `C[C@@H]1C[C@@H](NC(=O)c2ncc(-c3cccc(OC(F)(F)F)c3)o2)CN1C#N` [Example 2, N-((3R,5R)-1-Cyano-5-methylpyrrolidin-3-yl)-5-(3-(trifluoromethoxy)phenyl)oxazole-2-carboxamide], the IC50 in experiment [3] was ≥ 4.7 µM. The molecule further displayed an EC50 on USP30 of 0.007 µM. Moreover, testing at 10 µM on 5-HT2b gave an inhibition of 32%. Also, in experiment [2], the “inhibition of binding or enzyme activity against all targets in the panel” value is recorded as “less than 20%”.
